Assay results published in US8134015B2, “Compound inhibiting in vivo phosphorous transport and medicine containing the same” (Kyowa Hakko Kirin Co., Ltd., priority 2003, dated 2012).

target: T1, rat NaPi-2b (Rattus norvegicus, UniProt Q9JJ09); test: Sodium-dependent phosphate uptake of Xenopus oocytes which expressed NaPi-2b (32P); type: cell-based; details: Xenopus oocytes expressing rat NaPi-2b, 32P radioactive phosphorus; read-out: IC50 (phosphate uptake inhibitory activity)
T1 construct: expressed in transfected cells; host or cells: Xenopus oocytes injected with cRNA
T1 sequence (Q9JJ09 1-695): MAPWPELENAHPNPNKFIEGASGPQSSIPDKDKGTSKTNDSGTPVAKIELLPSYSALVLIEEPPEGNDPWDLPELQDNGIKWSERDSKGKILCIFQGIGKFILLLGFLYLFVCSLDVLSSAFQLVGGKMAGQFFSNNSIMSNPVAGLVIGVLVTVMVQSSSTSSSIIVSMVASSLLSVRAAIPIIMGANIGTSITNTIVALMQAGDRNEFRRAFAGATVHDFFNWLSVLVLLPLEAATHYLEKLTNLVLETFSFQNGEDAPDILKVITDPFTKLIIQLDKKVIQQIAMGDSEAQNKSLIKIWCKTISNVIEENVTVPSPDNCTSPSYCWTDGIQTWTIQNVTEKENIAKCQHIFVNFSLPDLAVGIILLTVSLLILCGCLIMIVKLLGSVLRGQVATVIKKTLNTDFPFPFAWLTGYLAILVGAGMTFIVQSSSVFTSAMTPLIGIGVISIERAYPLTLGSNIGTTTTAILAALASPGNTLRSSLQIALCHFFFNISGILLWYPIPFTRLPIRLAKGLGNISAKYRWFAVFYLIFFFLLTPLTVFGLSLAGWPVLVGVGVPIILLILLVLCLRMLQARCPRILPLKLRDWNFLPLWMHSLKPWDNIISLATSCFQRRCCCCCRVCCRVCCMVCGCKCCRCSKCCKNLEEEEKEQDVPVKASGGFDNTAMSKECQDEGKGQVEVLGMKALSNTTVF
Method in brief: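 Rat NaPi-2b cloned from small-intestine cDNA; cRNA injected into Xenopus oocytes, expression for 2 days. Phosphate uptake inhibition measured with 32P; percent inhibition at 300 μM and 100 μM read from the same inhibition curve.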

| Structure (SMILES) | IC50 [µM] |
| --- | --- |
| Cc1ccc(/C=N/NC(=O)c2cc(Br)ccc2NC(=O)c2ccc(CN(CC(C)O)CC(C)O)cc2)cc1 (stereo not drawn) [Compound 304, 4-{[Bis-(2-hydroxy-propyl)-amino]-methyl}-N-[4-bromo-2-(4-methyl-benzylidene-hydrazinocarbonyl)-phenyl]-benzamide] | 1.23 |
| Cc1ccc(/C=N/NC(=O)c2cc(Br)ccc2NC(=O)c2ccc(CN3CCN(CC(=O)N4CCOCC4)CC3)cc2)cc1C [Compound 305, N-[4-Bromo-2-(3,4-dimethyl-benzylidene-hydrazinocarbonyl)-phenyl]-4-[4-(2-morpholin-4-yl-2-oxo-ethyl)-piperazin-1-ylmethyl]-benzamide] | 2.47 |
| O=C(Nc1ccc(Br)cc1C(=O)N/N=C/c1ccc(Cl)c(C(F)(F)F)c1)c1ccc(CN2CCN(CC(=O)N3CCOCC3)CC2)cc1 [Compound 306, N-[4-Bromo-2-(4-chloro-3-trifluoromethyl-benzylidene-hydrazinocarbonyl)-phenyl]-4-[4-(2-morpholin-4-yl-2-oxo-ethyl)-piperazin-1-ylmethyl]-benzamide] | 2.13 |
| COc1ccc(/C=N/NC(=O)c2cc(Br)ccc2NC(=O)c2ccc(CN3CCN(CC(=O)N4CCOCC4)CC3)cc2)cc1 [Compound 307, N-[4-Bromo-2-(4-methoxy-benzylidene-hydrazinocarbonyl)-phenyl]-4-[4-(2-morpholin-4-yl-2-oxo-ethyl)-piperazin-1-ylmethyl]-benzamide] | 41.2 |
| Cc1cccc(/C=N/NC(=O)c2cc(Br)ccc2NC(=O)c2ccc(CN3CCC(N4CCCCC4)CC3)cc2)c1 [Compound 310, 4-[1,4′]Bipiperidinyl-1′-ylmethyl-N-[4-bromo-2-(3-methyl-benzylidene-hydrazinocarbonyl)-phenyl]-benzamide] | 7.82 |
| O=C(Nc1ccc(Br)cc1C(=O)N/N=C/c1ccc(F)cc1)c1ccc(CN2CCC(N3CCCCC3)CC2)cc1 [Compound 311, 4-[1,4′]Bipiperidinyl-1′-ylmethyl-N-[4-bromo-2-(4-fluoro-benzylidene-hydrazinocarbonyl)-phenyl]-benzamide] | 7.78 |
| Cc1ccc(/C=N/NC(=O)c2cc(Br)ccc2NC(=O)c2ccc(CN3CCN(CCO)CC3)cc2)cc1 [Compound 317, N-[4-Bromo-2-(4-methyl-benzylidene-hydrazinocarbonyl)-phenyl]-4-[4-(2-hydroxy-ethyl)-piperazin-1-ylmethyl]-benzamide] | 5.02 |
| O=C(Nc1ccc(Br)cc1C(=O)N/N=C/c1cccc(F)c1)c1ccc(CN2CCN(CCO)CC2)cc1 [Compound 320, N-[4-Bromo-2-(3-fluoro-benzylidene-hydrazinocarbonyl)-phenyl]-4-[4-(2-hydroxy-ethyl)-piperazin-1-ylmethyl]-benzamide] | 4.09 |
| O=C(Nc1ccc(Br)cc1C(=O)N/N=C/c1ccc(Cl)c(C(F)(F)F)c1)c1ccc(CN2CCN(CCO)CC2)cc1 [Compound 321, N-[4-Bromo-2-(4-chloro-3-trifluoromethyl-benzylidene-hydrazinocarbonyl)-phenyl]-4-[4-(2-hydroxy-ethyl)-piperazin-1-ylmethyl]-benzamide] | 2.66 |
| COc1cccc(/C=N/NC(=O)c2cc(Br)ccc2NC(=O)c2ccc(CN3CCN(CCO)CC3)cc2)c1 [Compound 323, N-[4-Bromo-2-(3-methoxy-benzylidene-hydrazinocarbonyl)-phenyl]-4-[4-(2-hydroxy-ethyl)-piperazin-1-ylmethyl]-benzamide] | 4.69 |
| Cc1ccc(/C=N/NC(=O)c2cc(Br)ccc2NC(=O)c2ccc(CN3CCC(O)CC3)cc2)cc1 [Compound 325, N-[4-Bromo-2-(4-methyl-benzylidene-hydrazinocarbonyl)-phenyl]-4-(4-hydroxy-piperidin-1-ylmethyl)-benzamide] | 2.56 |
| Cc1cccc(/C=N/NC(=O)c2cc(Br)ccc2NC(=O)c2ccc(CN3CCC(O)CC3)cc2)c1 [Compound 326, N-[4-Bromo-2-(3-methyl-benzylidene-hydrazinocarbonyl)-phenyl]-4-(4-hydroxy-piperidin-1-ylmethyl)-benzamide] | 2.1 |
| O=C(Nc1ccc(Br)cc1C(=O)N/N=C/c1cccc(F)c1)c1ccc(CN2CCC(O)CC2)cc1 [Compound 328, N-[4-Bromo-2-(3-fluoro-benzylidene-hydrazinocarbonyl)-phenyl]-4-(4-hydroxy-piperidin-1-ylmethyl)-benzamide] | 1.15 |
| O=C(Nc1ccc(Br)cc1C(=O)N/N=C/c1ccc(Cl)c(C(F)(F)F)c1)c1ccc(CN2CCC(O)CC2)cc1 [Compound 329, N-[4-Bromo-2-(4-chloro-3-trifluoromethyl-benzylidene-hydrazinocarbonyl)-phenyl]-4-(4-hydroxy-piperidin-1-ylmethyl)-benzamide] | 5.63 |
| COc1cccc(/C=N/NC(=O)c2cc(Br)ccc2NC(=O)c2ccc(CN3CCC(O)CC3)cc2)c1 [Compound 331, N-[4-Bromo-2-(3-methoxy-benzylidene-hydrazinocarbonyl)-phenyl]-4-(4-hydroxy-piperidin-1-ylmethyl)-benzamide] | 15.8 |

More lines, now with the values ahead:

| IC50 [µM] | Structure (SMILES) |
| --- | --- |
| 2.76 | Cc1ccc(/C=N/NC(=O)c2cc(Br)ccc2NC(=O)c2ccc(CN3CCC(N4CCCCC4)CC3)cc2)cc1C [Compound 308, 4-[1,4′]Bipiperidinyl-1′-ylmethyl-N-[4-bromo-2-(3,4-dimethyl-benzylidene-hydrazinocarbonyl)-phenyl]-benzamide] |
| 15.1 | Cc1ccc(/C=N/NC(=O)c2cc(Br)ccc2NC(=O)c2ccc(CN3CCC(N4CCCCC4)CC3)cc2)cc1 [Compound 309, 4-[1,4′]Bipiperidinyl-1′-ylmethyl-N-[4-bromo-2-(4-methyl-benzylidene-hydrazinocarbonyl)-phenyl]-benzamide] |
| 3.31 | O=C(Nc1ccc(Br)cc1C(=O)N/N=C/c1cccc(F)c1)c1ccc(CN2CCC(N3CCCCC3)CC2)cc1 [Compound 312, 4-[1,4′]Bipiperidinyl-1′-ylmethyl-N-[4-bromo-2-(3-fluoro-benzylidene-hydrazinocarbonyl)-phenyl]-benzamide] |
| 1.24 | O=C(Nc1ccc(Br)cc1C(=O)N/N=C/c1ccc(Cl)c(C(F)(F)F)c1)c1ccc(CN2CCC(N3CCCCC3)CC2)cc1 [Compound 313, 4-[1,4′]Bipiperidinyl-1′-ylmethyl-N-[4-bromo-2-(4-chloro-3-trifluoromethyl-benzylidene-hydrazinocarbonyl)-phenyl]-benzamide] |
| 3.39 | COc1ccc(/C=N/NC(=O)c2cc(Br)ccc2NC(=O)c2ccc(CN3CCC(N4CCCCC4)CC3)cc2)cc1 [Compound 314, 4-[1,4′]Bipiperidinyl-1′-ylmethyl-N-[4-bromo-2-(4-methoxy-benzylidene-hydrazinocarbonyl)-phenyl]-benzamide] |
| 4.71 | Cc1ccc(/C=N/NC(=O)c2cc(Br)ccc2NC(=O)c2ccc(CN3CCN(CCO)CC3)cc2)cc1C [Compound 316, N-[4-Bromo-2-(3,4-dimethyl-benzylidene-hydrazinocarbonyl)-phenyl]-4-[4-(2-hydroxy-ethyl)-piperazin-1-ylmethyl]-benzamide] |
| 2.49 | Cc1cccc(/C=N/NC(=O)c2cc(Br)ccc2NC(=O)c2ccc(CN3CCN(CCO)CC3)cc2)c1 [Compound 318, N-[4-Bromo-2-(3-methyl-benzylidene-hydrazinocarbonyl)-phenyl]-4-[4-(2-hydroxy-ethyl)-piperazin-1-ylmethyl]-benzamide] |
| 9.76 | O=C(Nc1ccc(Br)cc1C(=O)N/N=C/c1ccc(F)cc1)c1ccc(CN2CCN(CCO)CC2)cc1 [Compound 319, N-[4-Bromo-2-(4-fluoro-benzylidene-hydrazinocarbonyl)-phenyl]-4-[4-(2-hydroxy-ethyl)-piperazin-1-ylmethyl]-benzamide] |
| 5.93 | COc1ccc(/C=N/NC(=O)c2cc(Br)ccc2NC(=O)c2ccc(CN3CCN(CCO)CC3)cc2)cc1 [Compound 322, N-[4-Bromo-2-(4-methoxy-benzylidene-hydrazinocarbonyl)-phenyl]-4-[4-(2-hydroxy-ethyl)-piperazin-1-ylmethyl]-benzamide] |
| 4.43 | Cc1ccc(/C=N/NC(=O)c2cc(Br)ccc2NC(=O)c2ccc(CN3CCC(O)CC3)cc2)cc1C [Compound 324, N-[4-Bromo-2-(3,4-dimethyl-benzylidene-hydrazinocarbonyl)-phenyl]-4-(4-hydroxy-piperidin-1-ylmethyl)-benzamide] |
| 5.12 | O=C(Nc1ccc(Br)cc1C(=O)N/N=C/c1ccc(F)cc1)c1ccc(CN2CCC(O)CC2)cc1 [Compound 327, N-[4-Bromo-2-(4-fluoro-benzylidene-hydrazinocarbonyl)-phenyl]-4-(4-hydroxy-piperidin-1-ylmethyl)-benzamide] |
| 10.7 | COc1ccc(/C=N/NC(=O)c2cc(Br)ccc2NC(=O)c2ccc(CN3CCC(O)CC3)cc2)cc1 [Compound 330, N-[4-Bromo-2-(4-methoxy-benzylidene-hydrazinocarbonyl)-phenyl]-4-(4-hydroxy-piperidin-1-ylmethyl)-benzamide] |
